Test results as given in the Kinase Knowledgebase extract (Sharma et al. 2016).

What follows are molecules tested against EGFR (human) (UniProt P00533).
EGFR (human), sequence (P00533 whole entry, looked up): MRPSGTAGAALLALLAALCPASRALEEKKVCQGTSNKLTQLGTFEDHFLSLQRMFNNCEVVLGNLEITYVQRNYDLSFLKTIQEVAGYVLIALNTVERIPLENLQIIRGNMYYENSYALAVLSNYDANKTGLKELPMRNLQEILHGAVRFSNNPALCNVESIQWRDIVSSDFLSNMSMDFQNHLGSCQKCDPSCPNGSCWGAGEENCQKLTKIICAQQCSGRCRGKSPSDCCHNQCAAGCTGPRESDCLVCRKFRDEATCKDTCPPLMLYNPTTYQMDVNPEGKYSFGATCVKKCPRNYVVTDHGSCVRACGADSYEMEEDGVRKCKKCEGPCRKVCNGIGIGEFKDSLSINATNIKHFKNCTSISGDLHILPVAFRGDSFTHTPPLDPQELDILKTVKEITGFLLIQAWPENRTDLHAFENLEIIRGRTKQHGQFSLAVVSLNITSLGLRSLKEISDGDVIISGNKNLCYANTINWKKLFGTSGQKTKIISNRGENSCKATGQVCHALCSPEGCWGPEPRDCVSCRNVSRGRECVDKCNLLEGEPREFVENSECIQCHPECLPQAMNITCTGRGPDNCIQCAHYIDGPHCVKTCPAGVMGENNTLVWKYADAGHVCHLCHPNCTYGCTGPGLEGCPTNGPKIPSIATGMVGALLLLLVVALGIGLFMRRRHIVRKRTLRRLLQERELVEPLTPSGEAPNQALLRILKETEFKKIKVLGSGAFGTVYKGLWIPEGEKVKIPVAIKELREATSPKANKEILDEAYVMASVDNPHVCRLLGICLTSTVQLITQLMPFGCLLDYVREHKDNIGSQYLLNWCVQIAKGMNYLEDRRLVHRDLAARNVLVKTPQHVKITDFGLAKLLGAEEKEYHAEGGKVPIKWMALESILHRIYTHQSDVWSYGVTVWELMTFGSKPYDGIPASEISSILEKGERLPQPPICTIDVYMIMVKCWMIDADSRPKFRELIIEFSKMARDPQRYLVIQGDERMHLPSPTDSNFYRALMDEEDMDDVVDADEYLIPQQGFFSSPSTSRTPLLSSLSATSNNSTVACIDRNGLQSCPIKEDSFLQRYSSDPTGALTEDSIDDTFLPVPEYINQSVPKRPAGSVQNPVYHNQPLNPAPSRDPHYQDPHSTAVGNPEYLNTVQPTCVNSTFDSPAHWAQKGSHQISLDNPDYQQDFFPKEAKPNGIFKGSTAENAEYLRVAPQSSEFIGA

| Compound | IC50 [nM] |
| --- | --- |
| CC(C)c1nc(-c2cccc(NS(=O)(=O)c3c(F)cccc3F)c2)c(-c2ccnc(Nc3cccc(N4CCN(C)CC4)c3)n2)s1 | < 100 |
| CS(=O)(=O)CCN1CCN(c2ccc(Nc3nccc(-c4oc(N5CCCC5)nc4-c4cccc(NS(=O)(=O)c5c(F)cccc5F)c4F)n3)cc2F)CC1 | 100 to 1000 |
| CCOc1ccc(Nc2nccc(-c3sc(N4CCCC4)nc3-c3cccc(NS(=O)(=O)c4c(F)cccc4F)c3)n2)cc1N1CCN(CCS(C)(=O)=O)CC1 | < 100 |
| CC(C)c1nc(-c2ccc(F)c(NS(=O)(=O)c3c(F)cccc3F)c2)c(-c2ccnc(Nc3ccnc(N4CCOCC4)c3)n2)s1 | 100 to 1000 |
| COc1cc(N2CCN(CCS(C)(=O)=O)CC2)c(C)cc1Nc1nccc(-c2sc(C(C)C)nc2-c2cccc(NS(=O)(=O)c3c(F)cccc3F)c2F)n1 | < 100 |
| CN1CCC(c2nc(-c3ccc(F)c(NS(=O)(=O)c4c(F)cccc4F)c3)c(-c3ccnc(Nc4ccc(N5CCOCC5)nc4)n3)s2)CC1 | 100 to 1000 |
| O=S1(=O)Cc2ccc(Nc3nccc(-c4sc(N5CCOCC5)nc4-c4cccc(NS(=O)(=O)c5c(F)cccc5F)c4F)n3)cc2C1 | 100 to 1000 |
| COc1cc(N2CCN(CCS(C)(=O)=O)CC2)c(C)cc1Nc1nccc(-c2sc(C3CC3)nc2-c2cccc(NS(=O)(=O)c3c(F)cccc3F)c2)n1 | 100 to 1000 |
| O=S(=O)(Nc1cccc(-c2nc(N3CCOCC3)sc2-c2ccnc(Nc3ccc(N4CCOCC4)nc3)n2)c1F)c1c(F)cccc1F | 100 to 1000 |
| COc1cc2c(cc1Nc1nccc(-c3sc(C(C)C)nc3-c3cccc(NS(=O)(=O)c4c(F)cccc4F)c3)n1)N(C(=O)CN(C)C)CC2 | 100 to 1000 |
| CC(C)c1nc(-c2cccc(NS(=O)(=O)c3ccccc3)c2)c(-c2ccnc(Nc3ccc(F)c(N4CCN(CCS(C)(=O)=O)CC4)c3)n2)s1 | 100 to 1000 |
| COc1cc(CCN2CCCCC2)c(F)cc1Nc1nccc(-c2sc(C(C)C)nc2-c2cccc(NS(=O)(=O)c3c(F)cccc3F)c2)n1 | 100 to 1000 |
| CC(C)c1nc(-c2cccc(NS(=O)(=O)c3c(F)cccc3F)c2)c(-c2ccnc(Nc3ccc(N4CC[C@@H](O)C4)nc3)n2)s1 | 100 to 1000 |
| CCNc1nc(-c2cccc(NS(=O)(=O)c3c(F)cccc3F)c2)c(-c2ccnc(Nc3ccc(N4CCOCC4)nc3)n2)s1 | 100 to 1000 |
| CCc1nc(-c2ccc(F)c(NS(=O)(=O)c3ccccc3)c2)c(-c2ccnc(Nc3ccc(N4CCN(C(C)C)CC4)cc3OC)n2)s1 | 100 to 1000 |
| COc1cc(OCCN2CCOCC2)c(C)cc1Nc1nccc(-c2sc(C(C)C)nc2-c2cccc(NS(=O)(=O)c3c(F)cccc3F)c2F)n1 | 100 to 1000 |
| CC(=O)N1CCN(c2ccc(Nc3nccc(-c4sc(C(C)C)nc4-c4cccc(NS(=O)(=O)C5CCCCC5)c4)n3)cn2)CC1 | 100 to 1000 |
| Nc1nc(-c2cccc(NS(=O)(=O)c3c(F)cccc3F)c2)c(-c2ccnc(Nc3ccc(N4CCOCC4)nc3)n2)s1 | 100 to 1000 |
| O=S(=O)(Nc1cc(-c2nc(N3CCCC3)sc2-c2ccnc(Nc3ccc(N4CCOCC4)nc3)n2)ccc1F)c1c(F)cccc1F | 100 to 1000 |
| COc1cc(N2CCN(CCF)CC2)ccc1Nc1nccc(-c2sc(C(C)C)nc2-c2cccc(NS(=O)(=O)c3c(F)cccc3F)c2)n1 | 100 to 1000 |
| CC(=O)N1CCN(c2ccc(Nc3nccc(-c4sc(C(C)C)nc4-c4cccc(NS(=O)(=O)c5ccccc5F)c4)n3)cn2)CC1 | < 100 |
| COc1cc(N2CCN(CCS(C)(=O)=O)CC2)c(C)cc1Nc1nccc(-c2sc(C(C)C)nc2-c2cccc(NS(=O)(=O)c3cccs3)c2)n1 | < 100 |

| Compound | IC50 [nM] |
| --- | --- |
| CCc1nc(-c2cccc(NS(=O)(=O)c3ccccc3)c2)c(-c2ccnc(Nc3ccc(OC)c(N4CCN(CCS(C)(=O)=O)CC4)c3)n2)s1 | 100 to 1000 |
| CC(=O)N1CCc2cc(Nc3nccc(-c4sc(C(C)C)nc4-c4cccc(NS(=O)(=O)c5ccccc5)c4)n3)ccc21 | 100 to 1000 |
| COc1ccc(Nc2nccc(-c3sc(C(C)C)nc3-c3cccc(NS(=O)(=O)c4ccccc4)c3)n2)cc1N1CCN(CCC#N)CC1 | < 100 |
| CC(C)c1nc(-c2cccc(NS(=O)(=O)c3c(F)cccc3F)c2)c(-c2ccnc(Nc3ccc(N4CCCN(CCS(C)(=O)=O)CC4)nc3)n2)s1 | 100 to 1000 |
| CCNc1nc(-c2cccc(NS(=O)(=O)c3c(F)cccc3F)c2)c(-c2ccnc(Nc3cc(C)c(N4CCN(CCS(C)(=O)=O)CC4)cc3OC)n2)s1 | < 100 |
| COc1cc(N2CCC(N3CCN(CCS(C)(=O)=O)CC3)CC2)ccc1Nc1nccc(-c2sc(C(C)C)nc2-c2cccc(NS(=O)(=O)c3c(F)cccc3F)c2)n1 | < 100 |
| COc1ccc(S(C)(=O)=O)cc1Nc1nccc(-c2sc(C(C)C)nc2-c2cccc(NS(=O)(=O)c3c(F)cccc3F)n2)n1 | 100 to 1000 |
| COc1cc(Nc2nccc(-c3sc(C(C)C)nc3-c3cccc(NS(=O)(=O)c4c(F)cccc4F)c3)n2)cc(OC)c1OC1CCN(CCS(C)(=O)=O)CC1 | < 100 |
| COc1ccc(S(C)(=O)=O)cc1Nc1nccc(-c2sc(C(C)C)nc2-c2cccc(NS(=O)(=O)c3c(F)cccc3F)c2F)n1 | 100 to 1000 |
| COc1cc(N2CCN(CCS(C)(=O)=O)CC2)c(C)cc1Nc1nccc(-c2sc(C3CCOCC3)nc2-c2cccc(NS(=O)(=O)c3c(F)cccc3F)c2F)n1 | < 100 |
| COc1cc(N2CCN(CCS(C)(=O)=O)CC2)c(C)cc1Nc1nccc(-c2oc(N3CCCC3)nc2-c2cccc(NS(=O)(=O)c3c(F)cccc3F)c2)n1 | 100 to 1000 |
| COc1ccc(Nc2nccc(-c3sc(C(C)C)nc3-c3cccc(NS(=O)(=O)c4c(F)cccc4F)c3)n2)cc1N(C)C | < 100 |
| O=S(=O)(Nc1cc(-c2nc(N3CCOCC3)sc2-c2ccnc(Nc3ccc4c(c3)OCCO4)n2)ccc1F)c1c(F)cccc1F | 100 to 1000 |
| O=S(=O)(Nc1cc(-c2nc(N3CCOCC3)sc2-c2ccnc(Nc3ccc(N4CCOCC4)nc3)n2)ccc1F)c1c(F)cccc1F | 100 to 1000 |
| O=S(=O)(Nc1cccc(-c2ncsc2-c2ccnc(Nc3ccc(N4CCOCC4)nc3)n2)c1)c1c(F)cccc1F | 100 to 1000 |
| CC(C)c1nc(-c2ccc(F)c(NS(=O)(=O)c3ccccc3C#N)c2)c(-c2ccnc(Nc3ccc(N4CCOCC4)nc3)n2)s1 | 100 to 1000 |
| CC(C)c1nc(-c2ccc(F)c(NS(=O)(=O)c3c(F)cccc3F)c2)c(-c2ccnc(Nc3ccc(N4CCOCC4)nc3)n2)s1 | 100 to 1000 |
| CC(C)c1nc(-c2ccc(F)c(NS(=O)(=O)c3ccccc3F)c2)c(-c2ccnc(Nc3ccc(N4CCN(CCS(C)(=O)=O)CC4)c(F)c3)n2)s1 | 100 to 1000 |
| CC(C)c1nc(-c2cccc(NS(=O)(=O)c3c(F)cccc3F)c2)c(-c2ccnc(Nc3ccc(N4CCOCC4)c(C(=O)O)c3)n2)s1 | 100 to 1000 |
| O=S(=O)(Nc1cccc(-c2nc(N3CCCC3)sc2-c2ccnc(Nc3ccc(N4CCN(CCF)CC4)c(F)c3)n2)c1)c1c(F)cccc1F | < 100 |
| CC(C)c1nc(-c2cc(F)cc(NS(=O)(=O)c3c(F)cccc3F)c2)c(-c2ccnc(Nc3ccc(N4CCOCC4)nc3)n2)s1 | 100 to 1000 |
| CC(C)c1nc(-c2cccc(NS(=O)(=O)c3c(F)cccc3F)c2)c(-c2ccnc(Nc3ccc(OC4CCN(CCS(C)(=O)=O)CC4)c(F)c3)n2)s1 | 100 to 1000 |

| Compound | IC50 [nM] |
| --- | --- |
| CCNc1nc(-c2ccc(F)c(NS(=O)(=O)c3c(F)cccc3F)c2)c(-c2ccnc(Nc3ccc(N4CCOCC4)nc3)n2)s1 | 100 to 1000 |
| CCc1nc(-c2cccc(CNS(=O)(=O)c3ccccc3)c2)c(-c2ccnc(Nc3ccc(N4CCN(CCS(C)(=O)=O)CC4)c(F)c3)n2)s1 | 100 to 1000 |
| CC(C)c1nc(-c2cccc(NS(=O)(=O)c3c(F)cccc3F)c2)c(-c2ccnc(Nc3ccc(N4CCN5CCOC[C@H]5C4)nc3)n2)s1 | 100 to 1000 |
| CC(C)c1nc(-c2ccc(F)c(NS(=O)(=O)c3c(F)cccc3F)c2)c(-c2ccnc(Nc3ccc(N4CCN(CCF)CC4)c(F)c3)n2)s1 | 100 to 1000 |
| CC(C)c1nc(-c2cccc(NS(=O)(=O)c3c(F)cccc3F)c2)c(-c2ccnc(Nc3ccc(N4CCOCC4)c(F)c3)n2)o1 | 100 to 1000 |
| CC(C)c1nc(-c2cccc(NS(=O)(=O)c3ccccc3)c2)c(-c2ccnc(Nc3ccc(N4CCOCC4)nc3)n2)s1 | 100 to 1000 |
| COc1cc(N2CCN(CCS(C)(=O)=O)CC2)c(C)cc1Nc1nccc(-c2sc(C(C)C)nc2-c2cccc(NS(=O)(=O)c3cccnc3)c2)n1 | 100 to 1000 |
| CC(=O)N1CCN(c2ccc(Nc3nccc(-c4sc(C(C)C)nc4-c4cccc(NS(=O)(=O)c5cc(F)ccc5F)c4)n3)cn2)CC1 | 100 to 1000 |
| CC(C)c1nc(-c2cccc(NS(=O)(=O)c3c(F)cccc3F)c2)c(-c2ccnc(Nc3ccc(N4CCN(CCS(C)(=O)=O)CC4)c(F)c3)n2)s1 | 100 to 1000 |
| CC(=O)N1CCN(c2ccc(Nc3nccc(-c4sc(C(C)C)nc4-c4cccc(NS(=O)(=O)c5cccc(F)c5)c4)n3)cn2)CC1 | 100 to 1000 |
| COc1cc(N2CCN(CCS(C)(=O)=O)CC2)c(C)cc1Nc1nccc(-c2sc(C(C)C)nc2-c2cc(NS(=O)(=O)c3c(F)cccc3F)ccc2F)n1 | 100 to 1000 |
| COc1cc(N2CCC3(CC2)CCN(S(C)(=O)=O)CC3)c(C)cc1Nc1nccc(-c2sc(C(C)C)nc2-c2cccc(NS(=O)(=O)c3c(F)cccc3F)c2F)n1 | 100 to 1000 |
| COc1cc(N2CCN(CCS(C)(=O)=O)CC2)c(C)cc1Nc1nccc(-c2sc(N3CCOCC3)nc2-c2cccc(NS(=O)(=O)c3c(F)cccc3F)c2)n1 | < 100 |
| CC(C)c1nc(-c2cccc(NS(=O)(=O)c3c(F)cccc3F)c2)c(-c2ccnc(Nc3ccc(N4CCN(CCO)CC4)nc3)n2)s1 | < 100 |
| COc1cc(N2CCN(CCS(C)(=O)=O)CC2)c(C)cc1Nc1nccc(-c2sc(C)nc2-c2cccc(NS(=O)(=O)c3c(F)cccc3F)c2)n1 | < 100 |
| CCc1nc(-c2cccc(CNS(=O)(=O)c3ccccc3)c2)c(-c2ccnc(Nc3ccc(N4CCN(C(C)=O)CC4)nc3)n2)s1 | 100 to 1000 |
| COc1cc(N2CCN(CCS(C)(=O)=O)CC2)c(C)cc1Nc1nccc(-c2sc(C(C)C)nc2-c2cccc(NS(=O)(=O)c3c(F)cccc3F)n2)n1 | < 100 |
| CN1CCN(c2nc(-c3ccc(F)c(NS(=O)(=O)c4c(F)cccc4F)c3)c(-c3ccnc(Nc4ccc(N5CCOCC5)nc4)n3)s2)CC1 | 100 to 1000 |
| CC(C)c1nc(-c2ccc(F)c(NS(=O)(=O)c3c(F)cccc3F)c2)c(-c2ccnc(Nc3cccc(CCS(N)(=O)=O)c3)n2)s1 | 100 to 1000 |
| COc1cc(OC2CCN(CCS(C)(=O)=O)CC2)c(C)cc1Nc1nccc(-c2sc(C(C)C)nc2-c2cccc(NS(=O)(=O)c3c(F)cccc3F)c2)n1 | < 100 |
| CN(C)c1nc(-c2ccc(F)c(NS(=O)(=O)c3c(F)cccc3F)c2)c(-c2ccnc(Nc3ccc(N4CCN(S(C)(=O)=O)CC4)nc3)n2)s1 | 100 to 1000 |
| CC(C)c1nc(-c2cccc(NS(=O)(=O)c3ccccc3)c2)c(-c2ccnc(Nc3ccc(CC4CCN(CCS(C)(=O)=O)CC4)c(F)c3)n2)s1 | 100 to 1000 |
